# Measurements from PubChem BioAssay (NCI).
#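 Grown in 96-well plates, cells were treated for 48 hours with each compound at five concentrations. Insufficient inhibition: endpoint recorded as highest concentration tested. GI50 marks 50% less growth. TGI: total growth inhibition.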
# Key:
# Test in all cases: growth of human tumour cells (NCI), 48 h
# SW-620 colon = system: SW-620 colon
# NCI-H226 lung = system: NCI-H226 lung
# OVCAR-5 ovarian = system: OVCAR-5 ovarian
# SNB-75 CNS = system: SNB-75 CNS
# CCRF-CEM leukemia = system: CCRF-CEM leukemia
# BT-549 breast = system: BT-549 breast
# HT29 colon = system: HT29 colon
# HS 578T breast = system: HS 578T breast
# KM12 colon = system: KM12 colon
# OVCAR-8 ovarian = system: OVCAR-8 ovarian
# NCI-H23 lung = system: NCI-H23 lung
# MALME-3M melanoma = system: MALME-3M melanoma
# MDA-MB-435 = system: MDA-MB-435
# TK-10 renal = system: TK-10 renal
# RXF 393 renal = system: RXF 393 renal
# LOX IMVI melanoma = system: LOX IMVI melanoma
# CAKI-1 renal = system: CAKI-1 renal
# SF-295 CNS = system: SF-295 CNS
# HOP-62 NSCLC = system: HOP-62 NSCLC
# HCT-15 colon = system: HCT-15 colon
# A498 renal = system: A498 renal
# HCT-116 colon = system: HCT-116 colon
# ACHN renal = system: ACHN renal
# SR leukemia = system: SR leukemia
# COLO 205 colon = system: COLO 205 colon
# SNB-19 CNS = system: SNB-19 CNS
# RPMI-8226 leukemia = system: RPMI-8226 leukemia
# HOP-92 NSCLC = system: HOP-92 NSCLC
# UACC-257 melanoma = system: UACC-257 melanoma
# MOLT-4 leukemia = system: MOLT-4 leukemia
# SK-MEL-5 melanoma = system: SK-MEL-5 melanoma
# HCC-2998 colon = system: HCC-2998 colon
# OVCAR-3 ovarian = system: OVCAR-3 ovarian
# UACC-62 melanoma = system: UACC-62 melanoma
# T-47D breast = system: T-47D breast
# SF-539 CNS = system: SF-539 CNS
# M14 melanoma = system: M14 melanoma
# 786-0 renal = system: 786-0 renal
# K-562 leukemia = system: K-562 leukemia
# OVCAR-4 ovarian = system: OVCAR-4 ovarian
# SF-268 CNS = system: SF-268 CNS
# SK-MEL-2 melanoma = system: SK-MEL-2 melanoma
# NCI-H522 lung = system: NCI-H522 lung
# PC-3 prostate = system: PC-3 prostate
# UO-31 renal = system: UO-31 renal
# NCI/ADR-RES ovarian = system: NCI/ADR-RES ovarian
# SK-MEL-28 melanoma = system: SK-MEL-28 melanoma
# U251 CNS = system: U251 CNS
# NCI-H460 lung = system: NCI-H460 lung
# MDA-MB-231 breast = system: MDA-MB-231 breast
# SN12C renal = system: SN12C renal
# EKVX NSCLC = system: EKVX NSCLC
# IGROV1 ovarian = system: IGROV1 ovarian
# DU-145 prostate = system: DU-145 prostate
# MCF7 breast = system: MCF7 breast
# SK-OV-3 ovarian = system: SK-OV-3 ovarian
# HL-60(TB) leukemia = system: HL-60(TB) leukemia
# A549 NSCLC = system: A549 NSCLC
smiles,measurement,setting,value
COc1cc(C(=O)/C=C/c2c(-c3ccc(F)cc3)nc3sccn23)cc(OC)c1OC,GI50,SW-620 colon,2.92 µM
same,TGI,SW-620 colon,11.2 µM
same,GI50,NCI-H226 lung,2.09 µM
same,TGI,NCI-H226 lung,9.99 µM
same,GI50,OVCAR-5 ovarian,1.85 µM
same,TGI,OVCAR-5 ovarian,4.79 µM
same,GI50,SNB-75 CNS,1.83 µM
same,TGI,SNB-75 CNS,7.31 µM
same,GI50,CCRF-CEM leukemia,2.68 µM
same,TGI,CCRF-CEM leukemia,> 27.3 µM
same,GI50,BT-549 breast,0.342 µM
same,TGI,BT-549 breast,12.5 µM
same,GI50,HT29 colon,2.53 µM
same,TGI,HT29 colon,6.11 µM
same,GI50,HS 578T breast,2.05 µM
same,TGI,HS 578T breast,6.44 µM
same,GI50,KM12 colon,2.24 µM
same,TGI,KM12 colon,6.27 µM
same,GI50,OVCAR-8 ovarian,2.4 µM
same,TGI,OVCAR-8 ovarian,> 21.4 µM
same,GI50,NCI-H23 lung,2.43 µM
same,TGI,NCI-H23 lung,10.6 µM
same,GI50,MALME-3M melanoma,3.96 µM
same,TGI,MALME-3M melanoma,> 33.9 µM
same,GI50,MDA-MB-435,2.13 µM
same,TGI,MDA-MB-435,7.92 µM
same,GI50,TK-10 renal,3.6 µM
same,TGI,TK-10 renal,> 24.6 µM
same,GI50,RXF 393 renal,0.945 µM
same,TGI,RXF 393 renal,4.23 µM
same,GI50,LOX IMVI melanoma,1.8 µM
same,TGI,LOX IMVI melanoma,5.15 µM
same,GI50,CAKI-1 renal,0.405 µM
same,TGI,CAKI-1 renal,> 30 µM
same,GI50,SF-295 CNS,2.37 µM
same,TGI,SF-295 CNS,10.6 µM
same,GI50,HOP-62 NSCLC,1.96 µM
same,TGI,HOP-62 NSCLC,5.73 µM
same,GI50,HCT-15 colon,2.87 µM
same,TGI,HCT-15 colon,13.1 µM
same,GI50,A498 renal,2.35 µM
same,TGI,A498 renal,6.16 µM
same,GI50,HCT-116 colon,2.31 µM
same,TGI,HCT-116 colon,8.75 µM
same,GI50,ACHN renal,2.99 µM
same,TGI,ACHN renal,13.2 µM
same,GI50,SR leukemia,1.41 µM
same,TGI,SR leukemia,5.09 µM
same,GI50,COLO 205 colon,2.27 µM
same,TGI,COLO 205 colon,6.98 µM
same,GI50,SNB-19 CNS,3.37 µM
same,TGI,SNB-19 CNS,27.8 µM
same,GI50,RPMI-8226 leukemia,2.59 µM
same,TGI,RPMI-8226 leukemia,44.6 µM
same,GI50,HOP-92 NSCLC,1.7 µM
same,GI50,UACC-257 melanoma,14.1 µM
same,TGI,UACC-257 melanoma,33.7 µM
same,GI50,MOLT-4 leukemia,2.16 µM
same,TGI,MOLT-4 leukemia,6.35 µM
same,GI50,SK-MEL-5 melanoma,1.28 µM
same,TGI,SK-MEL-5 melanoma,2.81 µM
same,GI50,HCC-2998 colon,2.03 µM
same,TGI,HCC-2998 colon,3.99 µM
same,GI50,OVCAR-3 ovarian,2.27 µM
same,TGI,OVCAR-3 ovarian,6.81 µM
same,GI50,UACC-62 melanoma,2.28 µM
same,TGI,UACC-62 melanoma,13.9 µM
same,GI50,T-47D breast,2.3 µM
same,TGI,T-47D breast,14.3 µM
same,GI50,SF-539 CNS,1.59 µM
same,TGI,SF-539 CNS,3.62 µM
same,GI50,M14 melanoma,2.33 µM
same,TGI,M14 melanoma,9.44 µM
same,GI50,786-0 renal,2.54 µM
same,TGI,786-0 renal,6.49 µM
same,GI50,K-562 leukemia,1.85 µM
same,TGI,K-562 leukemia,6.64 µM
same,GI50,OVCAR-4 ovarian,3.27 µM
same,TGI,OVCAR-4 ovarian,38.1 µM
same,GI50,SF-268 CNS,2.37 µM
same,TGI,SF-268 CNS,7.36 µM
same,GI50,SK-MEL-2 melanoma,5.59 µM
same,TGI,SK-MEL-2 melanoma,> 27.9 µM
same,GI50,NCI-H522 lung,4.2 µM
same,TGI,NCI-H522 lung,> 26.2 µM
same,GI50,PC-3 prostate,3.57 µM
same,TGI,PC-3 prostate,> 46.2 µM
same,GI50,UO-31 renal,2.87 µM
same,TGI,UO-31 renal,> 27 µM
same,GI50,NCI/ADR-RES ovarian,2.05 µM
same,TGI,NCI/ADR-RES ovarian,6.28 µM
same,GI50,SK-MEL-28 melanoma,4.84 µM
same,TGI,SK-MEL-28 melanoma,17.2 µM
same,GI50,U251 CNS,2.41 µM
same,TGI,U251 CNS,9.23 µM
same,GI50,NCI-H460 lung,1.95 µM
same,TGI,NCI-H460 lung,4.51 µM
same,GI50,MDA-MB-231 breast,2.34 µM
same,TGI,MDA-MB-231 breast,> 29.8 µM
same,GI50,SN12C renal,2 µM
same,TGI,SN12C renal,15.8 µM
same,GI50,EKVX NSCLC,3.03 µM
same,TGI,EKVX NSCLC,> 100 µM
same,GI50,IGROV1 ovarian,3.49 µM
same,GI50,DU-145 prostate,2.52 µM
same,TGI,DU-145 prostate,6.64 µM
same,GI50,MCF7 breast,1.9 µM
same,TGI,MCF7 breast,7.88 µM
same,GI50,SK-OV-3 ovarian,2.68 µM
same,TGI,SK-OV-3 ovarian,11.9 µM
same,GI50,HL-60(TB) leukemia,1.61 µM
same,TGI,HL-60(TB) leukemia,4.19 µM
same,GI50,A549 NSCLC,2.54 µM
same,TGI,A549 NSCLC,> 21.1 µM
